Positions count from the first letter of the chain named.

The target in one experiment is T1, PPARγ WT LBD (Homo sapiens, UniProt P37231).
T1 construct: gene PPARG; LBD, residues 195–477 in PPARγ1 numbering
T1 sequence (P37231 223-505): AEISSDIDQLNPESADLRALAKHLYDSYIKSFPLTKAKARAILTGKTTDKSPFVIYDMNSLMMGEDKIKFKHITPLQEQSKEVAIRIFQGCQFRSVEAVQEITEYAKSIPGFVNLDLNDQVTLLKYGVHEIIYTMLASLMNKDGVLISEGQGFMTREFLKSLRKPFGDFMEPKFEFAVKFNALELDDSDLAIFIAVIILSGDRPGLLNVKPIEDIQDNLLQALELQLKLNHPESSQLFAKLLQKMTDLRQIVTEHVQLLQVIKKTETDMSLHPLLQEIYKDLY
Briefly: SPR (Biacore T200, immobilized LBD). It is filed as binding. (Surface plasmon resonance follows binding to a sensor surface in real time, without labels.)

Another experiment addresses T2, PPARγ R288A mutant LBD (Homo sapiens, UniProt P37231, R316A).
T2 construct: gene PPARG; LBD, residues 195–477 in PPARγ1 numbering
T2 sequence (P37231 223-505 R316A): T1 sequence (P37231 223-505) with R94A
The experiment can be described thus: ([…] Å) and SPR (Biacore T200). It is filed as binding.

Usually Kd stands for the equilibrium constant for the complex coming apart. Low readings indicate a tighter complex, high ones a looser complex. Take `Cc1ccc(NC(=O)c2ccc(CN3CCN(C)CC3)cc2)cc1Nc1nccc(-c2cccnc2)n1` [imatinib]: the Kd at PPARγ WT LBD is 231 nM; on PPARγ R288A mutant LBD, 152 nM.

The values above are taken from article PMC6803859, “Structural Basis for the Regulation of PPARγ Activity by Imatinib” (Molecules, 2019).
